# Measurements: article PMC11447708, “Comprehensive Exploration of Bromophenol Derivatives: Promising Antibacterial Agents against SA and MRSA” (ACS Omega, 2024)
# Where two headings read alike, the source gives them in different places.
# Key:
# [1] = test system: P. aeruginosa; test: microbroth dilution assay (MIC, resazurin); type: cell-based, Pseudomonas aeruginosa; conditions: 18 h, 37 °C; for MIC: Pseudomonas aeruginosa
# Description: (§1) The antibacterial efficacy of the chosen compounds was assessed through the microbroth dilution assay conducted in 96-well culture plates.[21] A stock solution with a concentration of 20 mg/mL was prepared in dimethyl sulfoxide (DMSO). Subsequently, autoclaved nutrient broth (100 μL) was introduced into the culture plate wells, with the initial row of the microtiter plate receiving 100 μL of the test material. 2-fold serial dilutions of the test compounds were then meticulously executed. To serve as an indicator, 20 μL of 2× resazurin solution was added to each well. Finally, 10 μL of the bacterial suspension was incorporated into each well, yielding a final concentration of 5 × 10^6 CFU/mL. The experiment was conducted in duplicate, and the plates were incubated at 37 °C. After 18 h, the plates were scrutinized for any change in color indicative of bacterial growth.
# [2] = test system: MRSA; test: agar well diffusion, zone of inhibition; type: cell-based, Staphylococcus aureus; conditions: for Diameter of zone inhibition on MRSA: Supplement S4, antibiotic standards; for inhibition zone diameter MRSA: concentration (μg): 20 for 1-3, 10 for ampicillin and tobramycin, 30 for tetracycline
# Description: Staphylococcus aureus ATCC 2793, Pseudomonas aeruginosa ATCC 27853, and P. aeruginosa PA14 were activated, cultured, and stored in a refrigerator at −25 °C in the Laboratory of Biotechnology, Faculty of Chemical, Da Nang University of Science and Technology, The University of Da Nang. The MRSA antibiotic-resistant strain was isolated, identified,[17] and kindly provided by Dr. Ngo Thai Bich Van, Faculty of Chemical, Da Nang University of Science and Technology, The University of Da Nang.
# (§2) The susceptibility test was measured in vitro by employing the agar well diffusion method.[20]S. aureus ATCC 2793 and P. aeruginosa ATCC 27853 strains were used in this experiment. A suspension of the test organism was prepared in nutrient broth by overnight culture for 24 h at 37 °C and 7.0 pH. The agar plate surface was inoculated by spreading a volume of the microbial inoculum over the entire agar surface. Then, a hole with a diameter of 6 to 8 mm was punched aseptically with a sterile tip, and a volume (20 μL) of the tested solution at the desired concentration was introduced into the well. Then, agar plates were incubated under suitable conditions depending upon the test microorganism. After incubation, the plates were examined and the diameters of the zone of complete inhibition were observed.
# [3] = test system: S. aureus ATCC 2793; test: agar well diffusion, zone of inhibition; type: cell-based, Staphylococcus aureus; conditions: for Diameter of zone inhibition on SA: Supplement S4, antibiotic standards; for inhibition zone diameter S. aureus: concentration (μg): 20 for 1-3, 10 for ampicillin and tobramycin, 30 for tetracycline
# Description: as §2
# [4] = test system: P. aeruginosa ATCC 27853; test: agar well diffusion, zone of inhibition; type: cell-based, Pseudomonas aeruginosa; conditions: for Diameter of zone inhibition on PA: Supplement S4, antibiotic standards; for inhibition zone diameter P. aeruginosa: concentration (μg): 20 for 1-3, 10 for ampicillin and tobramycin, 30 for tetracycline
# Description: as §2
# [5] = test system: S. aureus; test: microbroth dilution assay (MIC, resazurin); type: cell-based, Staphylococcus aureus; conditions: 18 h, 37 °C; for MIC: Staphylococcus aureus
# Description: as §1
# [6] = test system: P. aeruginosa ATCC 27853; test: biofilm formation inhibition, crystal violet assay; type: cell-based, Pseudomonas aeruginosa; conditions: mean ± SD, n = 3
# Description: Biofilm formation was evaluated utilizing the crystal violet assay.[22] The P. aeruginosa ATCC 27853 strain was used in this experiment. The bacterial attachment was initiated by inoculating the culture medium with approximately 10^7 CFU/mL in polystyrene 96-well plates, followed by incubation at 37 °C for 2 h in aerobic conditions. Subsequent to the attachment phase, the medium was carefully aspirated, and the 96-well plates were rinsed with phosphate-buffered saline (PBS) (pH 7.0) to eliminate unattached cells. The fresh medium, along with tested compounds, was then introduced to assess the inhibitory impact on biofilm formation. Following an 18 h incubation at 37 °C, a crystal violet (CV) assay was conducted. The well plate was washed with PBS to eliminate unattached cells, and a 1% CV solution was added, allowing for a 30 min incubation at room temperature. After this period, the well plate underwent three PBS washes, and absolute ethanol was added, incubating for 15 min. Following the transfer of the stained solution to a new well plate, the absorbance was measured at 595 nm.
# [7] = test system: pyocyanin production in the PA14 strain; test: pyocyanin inhibition assay (chloroform extraction); type: cell-based, Pseudomonas aeruginosa; conditions: half of the MIC, 12 h, mean ± SD, n = 3
# Description: Following the specified incubation period, the cultures underwent centrifugation at 10,000 rpm for 10 min, leading to the collection of the supernatant. Subsequently, 3 mL of chloroform was added to 5 mL of the supernatant, and the mixture was vortexed for 20 s. After centrifugation at 5000 rpm for 10 min, the resulting blue layer at the bottom was transferred to a new tube. To each tube, 2 mL of 0.2 M HCl was added and vortexed for 20 s. The sample underwent subsequent centrifugation for 2 min at 5000 rpm, and 1 mL of the resulting pink layer was transferred to cuvettes. A blank was established using 0.2 M HCl. Spectrophotometric measurements were carried out at 520 nm.
# [8] = test system: P. aeruginosa ATCC 27853; test: swarming motility; type: cell-based, Pseudomonas aeruginosa; conditions: 24 h at 37 °C; for migration distance (mm): swarming, control 100 mm
# Description: The analysis was performed in Petri dishes with the LB minimal medium supplemented with 0.2% glucose and 0.5% agar, as described by Kearns.[24] Tested compounds were added to the motility agar at the desired concentration. Aliquots (1.0 μL) were taken from P. aeruginosa ATCC 27853 overnight cultures and spotted in the center of each well, and the migration zones were measured after 24 h of incubation at 37 °C. The inhibition rate was calculated as follows: [drawing 1] where Dtreated and Dcontrol are the migration distances in the treated and control samples, respectively.
# [9] = test system: HEK-293 cells; test: AlamarBlue cell viability assay; type: cell-based; conditions: Homo sapiens, HEK293, 24 h exposure
# Description: HEK-293 cells were cultured in DMEM containing 25 mM glucose, 10% heat-inactivated fetal bovine serum (FBS), 100 U/mL penicillin, and 100 μg/mL streptomycin. Cells were incubated at 37 °C in a humidified atmosphere containing 95% air and 5% CO2.
# […] Untreated groups were set as the control (100% cell viability). On the 24th, cells were treated with the Invitrogen AlamarBlue cell viability reagent for an additional 2 h. Optical density (OD) values (at wavelengths of 570 and 600 nm) were then recorded. The percentage of cell viability was calculated according to the protocol provided by the manufacturer.
# [10] = test system: S. aureus; design: method as in Liu et al.[7]; conditions: bromo benzenediol derivatives; ref Liu et al.[7]; cited from earlier work
# [11] = test system: P. aeruginosa; design: method as in Liu et al.[7]; conditions: bromo benzenediol derivatives; ref Liu et al.[7]; cited from earlier work
# [12] = test system: Staphylcoccus epidermidis; design: method as in Liu et al.[7]; conditions: ref Liu et al.[7]; cited from earlier work
SMILES,MIC P. aeruginosa [1],Diameter of zone inhibition on MRSA [2] [mm],inhibition zone diameter MRSA [2] [mm],Diameter of zone inhibition on SA [3] [mm],inhibition zone diameter S. aureus [3] [mm],Diameter of zone inhibition on PA [4] [mm],inhibition zone diameter P. aeruginosa [4],MIC S. aureus [5] [µg/mL],MIC [5] [µg/mL],biofilm formation inhibition (%) [6] [%],pyocyanin production inhibition (%) [7] [%],MIC [1] [µg/mL],swarming motility inhibition rate (%) [8] [%],migration distance (mm) [8] [mm],IC50 [9] [µM],MIC S. aureus [10] [µg/mL],MIC P. aeruginosa [11] [µg/mL],MIC on Staphylcoccus epidermidis [12] [µg/mL]
CC1(C)S[C@@H]2[C@H](NC(=O)[C@H](N)c3ccccc3)C(=O)N2[C@H]1C(=O)O [ampicillin],inactive,15.5,18,14.5,16,0,no observable zone diameter,10,10,,,,,,,,,
"CC(=O)c1c(O)ccc(Br)c1O [compound 2, 3-Bromo-2,6-dihydroxyacetophenone]",,,30,,29,,1 mm,,12,14,52,780,86.5,13.5,31.1,,,
"CC(=O)c1cc(Br)c(O)c(Br)c1O [compound 3, 3,5-Dibromo-2,4-dihydroxyacetophenone]",,,20,,12,,1 mm,,390,14,38,780,86.5,13.5,> 32,,,
"Oc1cc(Cc2cc(O)c(O)c(Br)c2Br)c(Br)c(Br)c1O [compound 7, 4,4′-methylenebis(5,6-dibromo-1,2-benzenediol)]",,,,,,,,,,,,,,,,140,140,
"Oc1cc(COCc2cc(O)c(O)c(Br)c2Br)c(Br)c(Br)c1O [compound 8, bis(2,3-dibromo-4,5-dihydroxybenzyl)ether]",,,,,,,,,,,,,,,,70,70,35
CN(C)[C@@H]1C(O)=C(C(N)=O)C(=O)[C@@]2(O)C(O)=C3C(=O)c4c(O)cccc4[C@@](C)(O)[C@H]3C[C@@H]12 [tetracycline],70 µg/mL,10.25,12,9.75,14,10.5,10 mm,30,30,,,70,,,,,,
NC[C@H]1O[C@H](O[C@H]2[C@H](O)[C@@H](O[C@H]3O[C@H](CO)[C@@H](O)[C@H](N)[C@H]3O)[C@H](N)C[C@@H]2N)[C@H](N)C[C@@H]1O [tobramycin],15 µg/mL,5.5,12,,15,5.5,15 mm,25,25,,,15,,,,,,
